US7183238B2, “[1,2]-oxazine-3,5-diones” (Bayer CropScience AG, priority 2001, dated 2007)

Columns and labels:
Format in all cases: in vivo
[1] = test system: larvae of the mustard beetle (Phaedon cochleariae); assay: Phaedon larvae test; conditions: 500 ppm active compound, cabbage leaves (Brassica oleracea) dipped
Method: (§1) Phaedon Larvae Test • Solvent: 7 parts by weight of dimethylformamide • Emulsifier: 2 parts by weight of alkylaryl polyglycol ether To produce a suitable preparation of active compound, 1 part by weight of active compound is mixed with the stated amounts of solvents and emulsifier, and the concentrate is diluted with emulsifier-containing water to the desired concentration. Cabbage leaves (Brassica oleracea) are treated by being dipped into the preparation of active compound of the desired concentration and are populated with larvae of the mustard beetle (Phaedon cochleariae) while the leaves are still moist. After the desired period of time, the kill in % is determined. 100% means that all beetle larvae have been killed; 0% means that none of the beetle larvae has been killed.

[2] = test system: caterpillars of the armyworm (Spodoptera frugiperda); assay: Spodoptera frugiperda test; conditions: 500 ppm active compound, cabbage leaves (Brassica oleracea) dipped
Method: as §1, with “Spodoptera frugiperda” for “Phaedon Larvae”, “solvent” for “solvents”, “caterpillars” for “larvae”, “armyworm (Spodoptera frugiperda)” for “mustard beetle (Phaedon cochleariae)”, “caterpillars” for “beetle larvae”

[3] = test system: greenhouse red spider mite (Tetranychus urticae); assay: Tetranychus test (OP-resistant/dip treatment); conditions: 100 ppm active compound, OP-resistant, infested bean plants (Phaseolus vulgaris) dipped
Method: Tetranychus Test (OP-Resistant/dip Treatment)
• Solvent: 7 parts by weight of dimethylformamide • Emulsifier: 2 parts by weight of alkylaryl polyglycol ether
To produce a suitable preparation of active compound, 1 part by weight of active compound is mixed with the stated amounts of solvent and emulsifier, and the concentrate is diluted with emulsifier-containing water to the desired concentration.
Bean plants (Phaseolus vulgaris) which are heavily infested by all stages of the greenhouse red spider mite (Tetranychus urticae) are dipped into a preparation of active compound of the desired concentration.
After the desired period of time, the effect in % is determined. 100% means that all spider mites have been killed; 0% means that none of the spider mites has been killed.

Cc1ccc(-c2ccc(Cl)cc2)cc1C1=C(OC(=O)OCC(C)C)C(C)(C)ON(C)C1=O [Example I-c-1]
Kill rate in % after 7^d [1]: 100% | Kill rate in % after 7^d [2]: 100% | Kill rate in % after 7^d [3]: 98%
